For assay [1], the target named is Soluble DRB1*15:01 (human) (UniProt P01903).
The target in a further assay is T1, DR2b (DRB1*15:01) (Homo sapiens, UniProt P01903+P01911).
T1 construct: Soluble DRB1*15:01 and DRB5*01:01 with a covalently linked CLIP peptides; covalently linked CLIP peptide (3C-protease-cleavable linker) (cleaved yes); purchased NIH Tetramer Core Facility / Emory University (a gift of Drs. John Altman and Richard Willis, not bought)
As to the kind of experiment: fluorescence polarization competition binding assay, DR2b. The settings on record: mean of two independent experiments. A general note: Polarisation of emitted light reports the rotation of a fluorescent probe.

The next assay concerns the target DR2a (DRB5*01:01) (Homo sapiens, UniProt P01903+Q30154). In words: fluorescence polarization competition binding assay, DR2a.
Assay [2] has as its target Soluble DP4 (HLA-DPA1*01:03/DPB1*04:01) (human). In words: fluorescence polarisation.
Assay [3] deals with Soluble DRB1*15:01 (human) (UniProt P01903). In words: fluorescence polarisation.
The target in assay [4] is Soluble DRB5*01:01 (human) (UniProt P01903). In words: fluorescence polarisation.
In assay [5] the target is Soluble DP4 (HLA-DPA1*01:03/DPB1*04:01) (human).
A further assay deals with A549 cells. Particulars: cells treated with IFN-γ and trametinib (IFN-γ 100 ng/mL; trametinib 50 ng/mL, 50 nM).
[6] abbreviates: fluorescence polarization competition, […], mean of two independent experiments, read-out: Mean IC50, DR2a (DRB5*01:01).

“And” between values parts separate entries of the source, which are not always exact repeats. Equal values may be shown once. Read-outs that look alike come from different tables or passages of the source. No end group written: not given here.

For orientation: IC50 means the concentration at which inhibition is half-maximal.

On to P10, OC43 nucleoprotein 54–68 (peptide), for which the IC50 in assay [1] is under 1000 nM. As to `CC[C@H](C)[C@H](NC(=O)[C@@H](NC(=O)[C@H](CC(N)=O)NC(=O)[C@H](CO)NC(=O)[C@H](CCCCN)NC(=O)[C@H](CCC(=O)O)NC(=O)[C@@H](NC(=O)[C@H](CO)NC(=O)[C@H](C)NC(=O)[C@H](Cc1ccccc1)NC(=O)[C@H](Cc1ccc(O)cc1)NC(=O)[C@@H](NC(=O)CNC(=O)[C@H](CC(=O)O)NC(=O)[C@H](CC(N)=O)NC(=O)[C@@H](N)Cc1ccccc1)C(C)C)[C@@H](C)O)[C@@H](C)CC)C(=O)O` [S#18 (CoV2)], the IC50 at DR2b (DRB1*15:01) was 777000 nM; at DR2a (DRB5*01:01) (setting [6]), 41300 nM. As for EGQQIIFYEGVNFTP [Peptide P8], the IC50 at DR2b (DRB1*15:01) turned out to be 230 nM; at DR2a (DRB5*01:01), 5680 nM. For `CC(C)C[C@H](NC(=O)[C@H](C)NC(=O)[C@H](C)NC(=O)[C@@H](N)CC(C)C)C(=O)N[C@@H](CC(N)=O)C(=O)N[C@H](C(=O)N[C@@H](Cc1ccccc1)C(=O)N[C@H](C(=O)N[C@@H](CO)C(=O)N[C@@H](Cc1c[nH]cn1)C(=O)N[C@H](C(=O)N[C@@H](CC(C)C)C(=O)N[C@H](C(=O)N[C@@H](CCCCN)C(=O)N[C@@H](Cc1ccc(O)cc1)C(=O)O)[C@@H](C)O)[C@@H](C)O)C(C)C)C(C)C` [Peptide P11.229E], in that order: 210 nM and 2100 nM.

As for `CC(C)C[C@H](NC(=O)[C@H](C)NC(=O)[C@H](C)NC(=O)[C@@H](N)CC(C)C)C(=O)N[C@@H](CC(N)=O)C(=O)N[C@@H](C)C(=O)N[C@@H](Cc1ccccc1)C(=O)N[C@H](C(=O)N[C@@H](CO)C(=O)N[C@@H](CCC(N)=O)C(=O)N[C@H](C(=O)N[C@@H](CC(C)C)C(=O)N[C@@H](CC(N)=O)C(=O)N[C@@H](CCCCN)C(=O)N[C@@H](Cc1ccc(O)cc1)C(=O)O)C(C)C)C(C)C` [Peptide P11.NL63], the IC50 on DR2b (DRB1*15:01) turned out to be 560 nM; on DR2a (DRB5*01:01) it was 2100 nM. In assay [2], “P1, OC43 hemagglutinin esterase 259–273 (peptide)” returned an IC50 of under 1000 nM. P11, OC43 spike 1085–1099 (peptide) displayed an IC50 in assay [1] of under 1000 nM. Turning to `CC[C@H](C)[C@H](NC(=O)[C@@H](NC(=O)CNC(=O)[C@H](CC(N)=O)NC(=O)[C@H](CCC(=O)O)NC(=O)[C@H](CC(N)=O)NC(=O)[C@H](Cc1ccc(O)cc1)NC(=O)[C@H](CCCCN)NC(=O)[C@H](CC(C)C)NC(=O)[C@@H](N)CC(C)C)[C@@H](C)O)C(=O)N[C@H](C(=O)N[C@@H](CC(=O)O)C(=O)N[C@@H](C)C(=O)N[C@H](C(=O)N[C@@H](CC(=O)O)C(=O)N[C@@H](CS)C(=O)O)C(C)C)[C@@H](C)O` [S#56 (CoV2)], the IC50 at DR2b (DRB1*15:01) came out at 39800 nM; on DR2a (DRB5*01:01) (setting [6]), 41100 nM.

On to “P9, OC43 hemagglutinin esterase 128–142 (peptide)”, for which the IC50 in assay [3] and in assay [4] was under 1000 nM each time. For the compound P5, OC43 spike 760–773 (peptide), the IC50 in assay [5] is under 1000 nM. The same measure, in the same setting: in the case of P4, OC43 spike 903–917 (peptide) it was under 10000 nM. As to P12, OC43 spike 98–114 (peptide), the IC50 in assay [4] is under 1000 nM; in assay [1] it was over 1000 nM. Turning to P14, OC43 envelope 62–78 (peptide), in assay [5], the 50% inhibitory concentration (IC50) was under 10000 nM.

`CC(=O)Nc1cccc(-n2c(=O)n(C3CC3)c(=O)c3c(Nc4ccc(I)cc4F)n(C)c(=O)c(C)c32)c1` [trametinib]: the “MHC-II expression in A549 cells” value with A549 cells is “small increase”. On to `CC(C)[C@H](NC(=O)[C@H](CC(N)=O)NC(=O)CNC(=O)CNC(=O)[C@H](CO)NC(=O)[C@@H]1CCCN1)C(=O)N[C@H](C(=O)N1CCC[C@H]1C(=O)N[C@@H](Cc1ccc(O)cc1)C(=O)N[C@@H](Cc1ccc(O)cc1)C(=O)N[C@@H](CO)C(=O)N[C@@H](Cc1c[nH]c2ccccc12)C(=O)N[C@@H](Cc1ccccc1)C(=O)N[C@@H](CO)C(=O)NCC(=O)O)C(C)C` [Peptide P10], for which the IC50 on DR2b (DRB1*15:01) worked out at 260 nM; on DR2a (DRB5*01:01), 72800 nM.

In turn, P3, OC43 spike 97–111 (peptide) displayed an IC50 in assay [5] of under 10000 nM. Still for that read-out and setting: in the case of “P2, OC43 nucleoprotein 321–336 (peptide)” it was over 10000 nM. For the compound `CC[C@H](C)[C@H](NC(=O)CNC(=O)[C@H](CC(N)=O)NC(=O)[C@@H](NC(=O)[C@H](Cc1ccccc1)NC(=O)[C@@H](N)CC(=O)O)[C@@H](C)CC)C(=O)N[C@@H](Cc1ccccc1)C(=O)N[C@@H](C)C(=O)N[C@@H](CCCCN)C(=O)N[C@H](C(=O)N[C@@H](CCCCN)C(=O)N[C@@H](CC(N)=O)C(=O)N[C@H](C(=O)N[C@@H](CCCCN)C(=O)N[C@H](C(=O)N[C@H](C(=O)N[C@@H](CCCCN)C(=O)O)[C@@H](C)CC)C(C)C)[C@@H](C)O)C(C)C` [Peptide P12], the concentration for half-maximal inhibition (IC50) was 17100 nM on DR2b (DRB1*15:01); < 1000 nM and 140 nM at DR2a (DRB5*01:01). For LFYTQVYKNMAVYRS [Peptide P9], the IC50 on DR2b (DRB1*15:01) was 220 nM; at DR2a (DRB5*01:01), < 1000 nM and 400 nM.

As to `CC[C@H](C)[C@H](NC(=O)[C@H](CC(=O)O)NC(=O)[C@H](CO)NC(=O)[C@H](CC(C)C)NC(=O)[C@H](CCC(N)=O)NC(=O)[C@H](CCC(N)=O)NC(=O)[C@H](CO)NC(=O)[C@@H](NC(=O)[C@H](Cc1ccc(O)cc1)NC(=O)[C@H](C)NC(=O)[C@H](CC(N)=O)NC(=O)[C@H](CC(C)C)NC(=O)[C@H](C)NC(=O)[C@@H](NC(=O)[C@@H](N)CC(C)C)[C@@H](C)O)C(C)C)C(=O)O` [Peptide P11.HKU1], the IC50 came to 220 nM on DR2b (DRB1*15:01) and 21300 nM at DR2a (DRB5*01:01). For the compound “P8, OC43 hemagglutinin esterase 93–107 (peptide)”, the IC50 in assay [3] was under 1000 nM. The compound P6, OC43 spike 1140–1155 (peptide) showed an IC50 in assay [5] of over 10000 nM. The same measure, in the same setting: in the case of P7, OC43 spike 1147–1164 (peptide) it was under 10000 nM. For QGLPNNTASWFTALTQH [N#7 (CoV2)], the IC50 was determined as 507000 nM at DR2b (DRB1*15:01) and 204000 nM at DR2a (DRB5*01:01) (setting [6]). The like results for `CC[C@H](C)[C@H](NC(=O)[C@H](CC(C)C)NC(=O)[C@H](CCC(N)=O)NC(=O)[C@H](CCC(N)=O)NC(=O)[C@@H](NC(=O)[C@@H](NC(=O)[C@H](Cc1ccc(O)cc1)NC(=O)[C@@H](NC(=O)[C@H](CCC(N)=O)NC(=O)[C@H](CC(C)C)NC(=O)[C@H](CO)NC(=O)[C@H](CCC(N)=O)NC(=O)[C@@H](N)CC(C)C)[C@@H](C)O)C(C)C)[C@@H](C)O)C(=O)N[C@@H](CCCNC(=N)N)C(=O)N[C@@H](C)C(=O)O` [Peptide P11.CoV2] were, in that order, 450 nM and 2180 nM. As to `CC[C@H](C)[C@H](NC(=O)[C@@H](NC(=O)CNC(=O)[C@H](CC(N)=O)NC(=O)[C@H](CCC(=O)O)NC(=O)[C@H](CC(N)=O)NC(=O)[C@H](Cc1ccc(O)cc1)NC(=O)[C@H](CCCCN)NC(=O)[C@H](CC(C)C)NC(=O)[C@H](CC(C)C)NC(=O)[C@H](Cc1ccccc1)NC(=O)[C@@H](NC(=O)[C@H](CCCNC(=N)N)NC(=O)[C@@H]1CCCN1C(=O)[C@@H](N)CCC(N)=O)[C@@H](C)O)[C@@H](C)O)C(=O)N[C@H](C(=O)O)[C@@H](C)O` [S#55 (CoV2)], the IC50 at DR2b (DRB1*15:01) was determined as 3700 nM; on DR2a (DRB5*01:01) (setting [6]), 66200 nM. On to `CC(C)C[C@H](NC(=O)[C@H](C)NC(=O)[C@@H](NC(=O)[C@@H](N)CC(C)C)[C@@H](C)O)C(=O)N[C@@H](CC(N)=O)C(=O)N[C@@H](C)C(=O)N[C@@H](Cc1ccc(O)cc1)C(=O)N[C@H](C(=O)N[C@@H](CO)C(=O)N[C@@H](CCC(N)=O)C(=O)N[C@@H](CCC(N)=O)C(=O)N[C@@H](CC(C)C)C(=O)N[C@@H](CO)C(=O)N[C@@H](CC(=O)O)C(=O)N[C@@H](CO)C(=O)O)C(C)C` [Peptide P11], for which the figures for the IC50 on DR2b (DRB1*15:01) and on DR2a (DRB5*01:01) were 140 nM and 63500 nM, respectively.
